Legend:
[1] = Solubility of antioxidants in 2-ethylhexanol; conditions: 25° C., amount varied from 100 ppm to 1,000 ppm
Experimental: The solubility of different antioxidants in oxo alcohol was analyzed. Alkanox™ 240, Lowinox™ CA22, and Anox™ 1315, were added to 2-ethylhexanol.

[2] = Stability: aldehyde impurity levels in 2-ethylhexanol admixed with antioxidant, heated at 50° C., analysed by GC; type: physicochemical; conditions: 10 ppm in 2-ethylhexanol, heated conditions (50° C.)
Experimental: Experimental trials were conducted in accordance with the present method. The effects of antioxidants on aldehyde impurity levels in 2-ethlyhexanol were analyzed. A fixed volume of 2-ethylhexanol was admixed with an antioxidant and was heated at 50° C. for three weeks in a hot metal block. The 50° C. temperature mimicked harsh weather conditions during which accelerated autoxidation can occur. At the end of each week (intervals of 168 hours), a sample was drawn and analyzed using gas chromatography (GC). A control sample (where antioxidant was not added) was also analyzed. Lowinox™ CA22 was further examined at lower concentrations of 10 ppm and 20 ppm.

[3] = Color analysis of plasticizers made from 2-ethylhexanol with antioxidant (Platinum-Cobalt Scale, ASTM D1209); type: physicochemical
Experimental: The oxo alcohol 2-ethylhexanol was mixed with different antioxidants (Anox™ 1315 and Lowinox™ CA22). Plasticizers dioctyl phthalate (DOP) and/or trioctyl trimellitate (TOTM) were then synthesized using the different 2-ethylhexanol mixtures. The DOP plasticizer was produced using a 2-ethylhexanol to phthalic acid molar ratio of 2.35 to 1. The TOTM plasticizer was produced using a 2-ethylhexanol to […] molar ratio of 3.5 to 1. The plasticizers were synthesized a temperature of 210° C. for a period of 4 hours. Phosphorous-based antioxidants, nitrogen-based antioxidants, and sulfur-based antioxidants were all found to be problematic. For example, it was observed during downstream application that when phosphorus-based antioxidants were used, initially poor solubility in the oxo alcohol was a problem and then corrosion of the reactor. Not to be limited by theory, it is believed that during the production of the plasticizers, the phosphorus-based antioxidant would be hydrolyzed, producing phosphorus acid, which corroded the reactor. Nitrogen-based antioxidants and sulfur-based antioxidants, on the other hand, adversely affected the color of the resultant plasticizers.
Color analysis of the resulting plasticizers was conducted using the Platinum-Cobalt Scale in accordance with ASTM D1209, as updated in 2011. The best in class specification for TOTM plasticizer is a score of 30 and for the DOP plasticizer is a score of 25 on the Platinum-Cobalt scale. As is shown in Table 3, trioctyl trimellitate and dioctyl phthalate were produced using 2-ethylhexanol comprising the specified antioxidant.

[4] = 2-ethylhexanol with 10 ppm antioxidant

Time for which aldehyde growth was stopped [2]	Platinum-Cobalt score of resulting DOP [3, 4]	Platinum-Cobalt score of resulting TOTM [3, 4]	Platinum-Cobalt score of resulting TOTM ([3]; 2-ethylhexanol with 50 ppm antioxidant)	Structure (SMILES)	Solubility in 2-ethylhexanol [1]
–	–	–	–	CC(C)(C)c1ccc(OP(Oc2ccc(C(C)(C)C)cc2C(C)(C)C)Oc2ccc(C(C)(C)C)cc2C(C)(C)C)c(C(C)(C)C)c1 [Alkanox™ 240, phenol, 2,4-bis(1,1-dimetylethyl)-phosphite (3:1)]	not soluble
over 3 weeks	20	28	30	Cc1cc(O)c(C(C)(C)C)cc1C(C)CC(c1cc(C(C)(C)C)c(O)cc1C)c1cc(C(C)(C)C)c(O)cc1C (stereo not drawn) [Lowinox™ CA22, 1,1,3-tris(2′-methyl-4′-hydroxy-5′-t-butylphenyl)butane]	soluble

Source: patent publication US20210323901A1, “METHOD OF STORING AND/OR TRANSPORTING OXO ALCOHOL” (SABIC GLOBAL TECHNOLOGIES B.V., priority 2018, published 2021)
